Test results from a melting point compilation (Tetko et al.; mined from patent text by program, amines drawn as free bases though some values may be those of a salt).

Row | SMILES | melting point [°C]
1 | Cc1noc(CCc2c(-c3ccccc3)c(=O)[nH]c3cc(Cl)ccc23)n1 | 235 to 238
2 | CCCN1CCN(CCCOc2ccc3nc(C#N)nc(NCC(C)(C)C)c3c2)CC1 | 102 to 104
3 | COc1ccc2c(C)c(C(=O)C34CC5CC(CC(C5)C3)C4)oc2c1 | 173 to 175
4 | CC(C)N(O)C(=O)Nc1ccc(S(C)(=O)=O)cc1 | 163 to 164
5 | O=C(CCC=C(c1ccccc1)c1ccccc1)NCCCCn1ccnc1 | 102 to 103
6 | OCC1NCCc2occc21 (stereo not given) | 66 to 69
7 | COCCCNc1cccc(Oc2ccc(-c3cn(C4CCOCC4)c4ncnc(N)c34)cc2)c1C#N | 205 to 207
8 | CSc1nsc(NC(=O)C(C)(C)C)c1C(N)=O | 142 to 143
9 | CCC1(C)CC(NC(=O)c2cccc([N+](=O)[O-])c2O)CC(C)(C)C1 (stereo not given) | 125 to 128
10 | Cc1cc(-c2ccc(C(F)(F)F)cc2)nc2c(-c3nc(-c4ccc(S(N)(=O)=O)s4)no3)cnn12 | 276
11 | CC1CC(=O)N(c2ccncc2)C1=O (stereo not given) | 119 to 120
12 | NC(=O)CCCN1C(=O)c2ccccc2C1=O | 160 to 162
13 | CCCCNC(=O)NS(=O)(=O)c1c(SC)cccc1SC | 151 to 154
14 | N#CSc1ccc(NC(=O)OCc2cccnc2)cc1 | 188 to 191
15 | CCOC(=O)C1=C(N)NC(c2ccccc2)=C(C(=O)O)C1c1ccccc1 (stereo not given) | 183
16 | CCc1nc(/C=C/c2cn(-c3ccccc3)nc2OCc2ccc(OCc3nc(/C=C/C(=O)O)oc3C)c(OC)c2)cs1 | 125 to 126
17 | CC1(C)CCc2cc(O)c(C=O)cc21 | 40 to 40.5
18 | Cc1c(C)c(C=O)c2c(c1C)CCO2 | 90
19 | O=C1NC(=O)C(Nc2ccc(CCNC[C@H](O)COc3ccc(O)cc3)cc2)S1 (stereo not given in full) | 165
20 | ClCCCOc1ccc(-n2ccnc2)cc1 | 53 to 55
21 | O=C1c2c(O)cccc2C(c2ccccc2)c2cccc(O)c21 | 193 to 194
22 | CCCN(C(C)C)C1COc2cccc(C(=O)NC(C)C)c2C1 (stereo not given) | 124
23 | CC(=O)OCc1cc([N+](=O)[O-])ccc1C | 52 to 53.5

Row | SMILES | melting point [°C]
24 | O=C(c1ccc(Cl)cc1)c1ccc2c(c1)C(c1cccc(Cl)c1)=NCC(=S)N2 | 125
25 | COC(=O)[C@@H]1C[C@H](C(=O)OC(C)(C)C)N(C(=O)CNC(=O)Nc2ccc(Cl)cc2)[C@@H]1c1ccccc1 (racemic) | 125
26 | CCOC(=O)c1ccc(NC(=O)Nc2c(OC)ccc3c2C(C)(C)COC3(C)C)cc1 | 147 to 149
27 | O=C1ONCC12CCOc1ccc(F)cc12 (stereo not given) | 153 to 155
28 | CCc1cc(CC)c2ccc(N)nc2n1 | 187 to 189
29 | COC(=O)c1ccc(C)cc1N(C)S(C)(=O)=O | 100 to 103
30 | CC1=C(C)C[C@H]2C(=O)CC(=O)[C@H]2C1 | 157 to 158
31 | O=C1CC[C@H](CC(c2ccc(S(=O)(=O)C3CC3)cc2)c2ccc(-c3nccs3)[nH]2)C1 (stereo not given in full) | 165 to 167
32 | CCCC1(C)CC(C)c2cc(C(C)=O)c(O)c(C)c2O1 (stereo not given) | 73
33 | CN1C(=O)C(C)(C)N=C(c2ccccc2Cl)c2cc(N)ccc21 | 85 to 110
34 | COC(=O)[C@@H](C)OCC#Cc1cc(Cl)ccc1NS(=O)(=O)c1ccc2ncsc2c1 | 136
35 | CCOCC(COCC)Oc1ccc(/C=C/CO)c(Oc2ncc(C(F)(F)F)cc2Cl)c1 | 52.5 to 54.5
36 | Cc1cc2nc(C3(c4ccc(S(N)(=O)=O)cc4)C=C(C(F)(F)F)NN3)sc2cc1F (stereo not given) | 224 to 225
37 | CCOc1nn(Cc2ccc(OCc3nc(-c4ccccc4)oc3C)nc2)cc1CC(=O)O | 126 to 127
38 | CCSc1nc(=O)[nH]cc1F | 168
39 | C=CCOC1CCC2C3CCC4CC(=O)CCC4(C)C3CCC12C (stereo not given) | 122 to 124
40 | CC(C)Oc1ccc(-c2ccc3nc(C(=O)NC(Cc4ccc(OCc5ccccc5)cc4)C(=O)O)cn3c2)cc1 (stereo not given) | 263
41 | CCc1ccc(-c2ccc(-c3ccc(C)s3)c(F)c2)cc1 | 102
42 | CC1=C2CCc3cc(Cl)ccc3N2CCC1=O | 112 to 114
43 | COc1ccccc1-c1ccc(Cl)c2c1S(=O)(=O)NC(C1CCCCC1)=N2 | 100 to 105
44 | Cn1c(C(F)(F)F)nnc1S(C)(=O)=O | 96
45 | Cc1nc(-c2cnc(Cc3ccccc3)o2)sc1C(=O)NCc1ccccc1 | 141 to 142
46 | CC(C)(C)OC(=O)NC1CCN(c2ccc(C#N)cc2)CC1 | 188 to 189

Next, values leading:

Row | melting point [°C] | SMILES
47 | 218 | OC(Cc1ccc(Cl)cc1)(Cn1ccnc1)c1ccc2c(c1)Cc1cc(Cl)ccc1-2 (stereo not given)
48 | 135 to 136 | Clc1cccc(OCC(Cn2ccnc2)Sc2c(Cl)cccc2Cl)c1Cl (stereo not given)
49 | 166 to 168 | CC(=O)n1nc(S(=O)(=O)Cl)nc1N
50 | 58 | Cc1cnc2c(c1)CCCC2O (stereo not given)
51 | 153 to 154 | O=C(c1ccc([N+](=O)[O-])cc1)N1Cc2ccccc2-c2ccccc21
52 | 149 | CCC(CC)CC(C)(NC(CO)c1ccccc1)C(=O)O (stereo not given)
53 | 132 to 134 | CC(Br)c1ccc(-c2ccc(C(=O)c3ccccc3)cc2)cc1 (stereo not given)
54 | 152 to 157 | c1ccc2c(c1)CCCC1C2=NNC1c1ccncc1 (stereo not given)
55 | 188 to 192 | O=C(NC(=O)c1c(Cl)cccc1Cl)Nc1cncc(C(F)(F)F)n1
56 | 80.2 | C=CCC(C#N)(C#N)Cc1ccc(C(F)(F)F)cc1
57 | 216 to 219 | CCC(C)(C)c1cc(-c2cccc(CC3SC(N4CCCC4)=NC3=O)c2)ccc1O (stereo not given)
58 | 87 to 88 | OCc1cccc(/C=C/c2ccccc2)c1
59 | 155 | O=C(C=Cc1ccccc1O)C=Cc1ccccc1O
60 | 32 to 34 | N#Cc1cscc1Sc1ccccc1
61 | 121 to 122 | Cc1ccc(-c2oncc2CCC(=O)O)cc1
62 | 104 to 108 | CNS(=O)(=O)CC(N)=O
63 | 251 | Cc1nc(Cl)c2c(c1O)COC2(C)C
64 | 171 to 173 | O=Cc1ccc2c(c1)Cc1cccnc1O2
65 | 80 to 82 | COc1ccc(Cn2c(=O)c3cccnc3n(CCCCBr)c2=O)cc1
66 | 128 to 130 | CNC(=S)c1cnn(-c2cccc(Cl)c2)c1Cl
67 | 164 to 165 | O[C@@H]1[C@H](O)[C@H](O)CO[C@H]1n1c(Br)nc2cc(Cl)c(Cl)cc21
68 | 133 to 134 | CC(=O)OCc1cn(C(c2ccccc2)(c2ccccc2)c2ccccc2)cn1
69 | 209 to 219 | CSc1nc(-c2ccc(C#N)cc2)cn1-c1ccc(C#N)cc1
70 | 133 to 134 | COC(=O)c1cc2ccc(SCc3ccc(OC)cc3)cc2nc1OC
71 | 149 to 151 | O=C(O)C(O)N1C(=O)CCN1c1ccc(Cl)cc1 (stereo not given)
72 | 240 to 241 | CCNC(=O)Nc1cc(-c2c(-c3ccc(F)c(C)c3)nc3c(C)ccnn23)ccn1
73 | 76 to 82 | CCCCCCCCCCCCCCCCCC(=O)NC(C)c1c[nH]c(CCCCCCCCCCCCCCCCC)n1 (stereo not given)
74 | 142 to 143 | CCOc1ccc(C2=NNC(=O)CC2)cc1OCC
75 | 112 to 116 | O=c1c2c(Cl)cc(Cl)cc2n(Cc2ccccc2)c(=O)n1Cc1cccc(F)c1
